Results reported in patent US12521393B2, “Cytotoxicity targeting chimeras for CCR2-expressing cells” (GLAXOSMITHKLINE INTELLECTUAL PROPERTY DEVELOPMENT LIMITED, priority 2021, dated 2026).

Assays:
[1] = system: CCR2 expressing cells (CD11b+Ly6c+Hi) in peripheral blood; assay: In vivo depletion assay, flow cytometry of peripheral blood (Example 201); parameters: species or system human CCR2 knock-in mice (C57 background); settings: hCCR2 knock-in mice, IV 0.1 mpk compound + 10 mpk anti-cotinine antibody (SEQ ID NO: 13/14), peripheral blood at 48 hr
Method in brief: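 Flow cytometry of blood collected at study termination quantified percent depletion of CD11b+Ly6c+Hi cells and CCR2 expression, using surface markers CD45, CD3, CD11b, Ly6C, human CCR2 after Fc block, with 7AAD viability stain. Compound given in saline:DMSO:PBS formulation, optionally combined with anti-cotinine antibody, incubated 30 min before administration.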

[2] = target: anti-cotinine antibody (SEQ ID NO: 11/12, rabbit variable region with human IgG1 Fc DE mutation); assay: SPR binding of anti-cotinine antibody to ARM compounds, Biacore T200, 37° C. (Example 202); settings: SPR Biacore T200, 37° C., pH 7.4, antibody SEQ ID NO: 11/12 captured on protein A; Kd in molar
Method in brief: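 Run at 37 °C in 10 mM HEPES pH 7.4, 150 mM NaCl, 0.005% P20, 1% DMSO, with compounds titrated from 200 nM (five 3-fold steps) over protein A–captured antibody. A 1:1 kinetic model on double-referenced data gave rate constants, Kd as koff/kon and residence time 1/koff; results as pKd, run-averaged.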

SMILES | % Depletion of CCR2 expressing cells [1] [%] | pKd of Antibody for ARM Compound of Formula (I) [2]
CC(C)N(C)[C@@H]1CC[C@H](N2CC[C@H](Nc3ncnc4ccc(C(F)(F)F)cc34)C2=O)[C@H](NC(=O)CCOCCOCCNC(=O)CCOCCOCCNC(=O)[C@H]2CC(=O)N(C)[C@@H]2c2cccnc2)C1 [Example 76, (2S,3S)-N-(19-(((1R,2S,5R)-5-(Isopropyl(methyl)amino)-2-((S)-2-oxo-3-((6-(trifluoromethyl)quinazolin-4-yl)amino)pyrrolidin-1-yl)cyclohexyl)amino)-9,19-dioxo-3,6,13,16-tetraoxa-10-azanonadecyl)-1-methyl-5-oxo-2-(pyridin-3-yl)pyrrolidine-3-carboxamide] | 65 | 9.1155
CC(C)N(C)[C@@H]1CC[C@H](N2CC[C@H](Nc3ncnc4ccc(C(F)(F)F)cc34)C2=O)[C@H](NC(=O)[C@H]2CC[C@@H](NC(=O)COCCNC(=O)COCCNC(=O)[C@H]3CC(=O)N(C)[C@@H]3c3cccnc3)CC2)C1 [Example 99, (2S,3S)-N-(2-(2-((2-(2-(((1S,4s)-4-(((1R,2S,5R)-5-(Isopropyl(methyl)amino)-2-((S)-2-oxo-3-((6-(trifluoromethyl)quinazolin-4-yl)amino)pyrrolidin-1-yl)cyclohexyl)carbamoyl)cyclohexyl)amino)-2-oxoethoxy)ethyl)amino)-2-oxoethoxy)ethyl)-1-methyl-5-oxo-2-(pyridin-3-yl)pyrrolidine-3-carboxamide] | 80 | 9.062
CC(C)N(C)[C@@H]1CC[C@H](N2CC[C@H](Nc3ncnc4ccc(C(F)(F)F)cc34)C2=O)[C@H](NC(=O)CCOCCNC(=O)COCCNC(=O)COCCNC(=O)[C@H]2CC(=O)N(C)[C@@H]2c2cccnc2)C1 [Example 102, (2S,3S)-N-(18-(((1R,2S,5R)-5-(Isopropyl(methyl)amino)-2-((S)-2-oxo-3-((6-(trifluoromethyl)quinazolin-4-yl)amino)pyrrolidin-1-yl)cyclohexyl)amino)-5,11,18-trioxo-3,9,15-trioxa-6,12-diazaoctadecyl)-1-methyl-5-oxo-2-(pyridin-3-yl)pyrrolidine-3-carboxamide] | 91 | 9.076
CC(C)N(C)[C@@H]1CC[C@H](N2CC[C@H](Nc3ncnc4ccc(C(F)(F)F)cc34)C2=O)[C@H](NC(=O)CCOCCNC(=O)CCOCCNC(=O)COCCNC(=O)[C@H]2CC(=O)N(C)[C@@H]2c2cccnc2)C1 [Example 105, (2S,3S)-N-(19-(((1R,2S,5R)-5-(Isopropyl(methyl)amino)-2-((S)-2-oxo-3-((6-(trifluoromethyl)quinazolin-4-yl)amino)pyrrolidin-1-yl)cyclohexyl)amino)-5,12,19-trioxo-3,9,16-trioxa-6,13-diazanonadecyl)-1-methyl-5-oxo-2-(pyridin-3-yl)pyrrolidine-3-carboxamide] | 95 | 9.0705
CC(C)N(C)[C@@H]1CC[C@H](N2CC[C@H](Nc3ncnc4ccc(C(F)(F)F)cc34)C2=O)[C@H](NC(=O)CCOCCNC(=O)[C@H]2CC[C@@H](NC(=O)COCCNC(=O)[C@H]3CC(=O)N(C)[C@@H]3c3cccnc3)CC2)C1 [Example 107, (2S,3S)-N-(2-(2-(((1S,4R)-4-((2-(3-(((1R,2S,5R)-5-(Isopropyl(methyl)amino)-2-((S)-2-oxo-3-((6-(trifluoromethyl)quinazolin-4-yl)amino)pyrrolidin-1-yl)cyclohexyl)amino)-3-oxopropoxy)ethyl)carbamoyl)cyclohexyl)amino)-2-oxoethoxy)ethyl)-1-methyl-5-oxo-2-(pyridin-3-yl)pyrrolidine-3-carboxamide] | 96 | 9.161
CC(C)N(C)[C@@H]1CC[C@H](N2CC[C@H](Nc3ncnc4ccc(C(F)(F)F)cc34)C2=O)[C@H](NC(=O)COCCNC(=O)COCCNC(=O)COCCNC(=O)[C@H]2CC(=O)N(C)[C@@H]2c2cccnc2)C1 [Example 111, (2S,3S)-N-(17-(((1R,2S,5R)-5-(Isopropyl(methyl)amino)-2-((S)-2-oxo-3-((6-(trifluoromethyl)quinazolin-4-yl)amino)pyrrolidin-1-yl)cyclohexyl)amino)-5,11,17-trioxo-3,9,15-trioxa-6,12-diazaheptadecyl)-1-methyl-5-oxo-2-(pyridin-3-yl)pyrrolidine-3-carboxamide] | 50 | 9.0855
CC(C)N(C)[C@@H]1CC[C@H](N2CC[C@H](Nc3ncnc4ccc(C(F)(F)F)cc34)C2=O)[C@H](NC(=O)CNC(=O)[C@H]2CC[C@@H](NC(=O)CCOCCOCCNC(=O)[C@H]3CC(=O)N(C)[C@@H]3c3cccnc3)CC2)C1 [Example 137, (2S,3S)-N-(2-(2-(3-(((1S,4s)-4-((2-(((1R,2S,5R)-5-(Isopropyl(methyl)amino)-2-((S)-2-oxo-3-((6-(trifluoromethyl)quinazolin-4-yl)amino)pyrrolidin-1-yl)cyclohexyl)amino)-2-oxoethyl)carbamoyl)cyclohexyl)amino)-3-oxopropoxy)ethoxy)ethyl)-1-methyl-5-oxo-2-(pyridin-3-yl)pyrrolidine-3-carboxamide] | 89 | 9.336
CC(C)N(C)[C@@H]1CC[C@H](N2CC[C@H](Nc3ncnc4ccc(C(F)(F)F)cc34)C2=O)[C@H](NC(=O)[C@H]2CC[C@@H](NC(=O)CCOCCNC(=O)CCNC(=O)CCNC(=O)[C@H]3CC(=O)N(C)[C@@H]3c3cccnc3)CC2)C1 [Example 182, (2S,3S)-N-(3-((3-((2-(3-(((1S,4s)-4-(((1R,2S,5R)-5-(Isopropyl(methyl)amino)-2-((S)-2-oxo-3-((6-(trifluoromethyl)quinazolin-4-yl)amino)pyrrolidin-1-yl)cyclohexyl)carbamoyl)cyclohexyl)amino)-3-oxopropoxy)ethyl)amino)-3-oxopropyl)amino)-3-oxopropyl)-1-methyl-5-oxo-2-(pyridin-3-yl)pyrrolidine-3-carboxamide] | 97 | 9.117
CC(C)N(C)[C@@H]1CC[C@H](N2CC[C@H](Nc3ncnc4ccc(C(F)(F)F)cc34)C2=O)[C@H](NC(=O)CCOCCC(=O)N[C@H]2C[C@@H](C(=O)NCCOCCNC(=O)[C@H]3CC(=O)N(C)[C@@H]3c3cccnc3)C2)C1 [Example 186, (2S,3S)-N-(2-(2-((1S,3R)-3-(3-(3-(((1R,2S,5R)-5-(Isopropyl(methyl)amino)-2-((S)-2-oxo-3-((6-(trifluoromethyl)quinazolin-4-yl)amino)pyrrolidin-1-yl)cyclohexyl)amino)-3-oxopropoxy)propanamido)cyclobutane-1-carboxamido)ethoxy)ethyl)-1-methyl-5-oxo-2-(pyridin-3-yl)pyrrolidine-3-carboxamide] | 96 | 9.1435
CC(C)N(C)[C@@H]1CC[C@H](N2CC[C@H](Nc3ncnc4ccc(C(F)(F)F)cc34)C2=O)[C@H](NC(=O)CCOCCC(=O)N[C@H]2C[C@H](C(=O)NCCOCCNC(=O)[C@H]3CC(=O)N(C)[C@@H]3c3cccnc3)C2)C1 [Example 187] | 92 | 9.104
